In patent US4736045A, “Process for fluorinating ethers” (priority 1983, dated 1988):

Test: Critical temperature and normal boiling point of heat pump working fluids
Format: physicochemical
Settings: working fluid in a heat pump (TC = 150° C., TE = 100° C.)

| Compound | critical temperature [°C] | normal boiling point [°C] |
| --- | --- | --- |
| COCC(F)(F)C(F)C(F)(F)F (stereo not shown) [1.1.1.2.3.3. hexafluoro butyl methyl ether] | 236 | 87 |
| FC(F)(F)C(F)(F)C(F)(F)C1(F)OC(F)(F)C(F)(F)C1(F)F (stereo not shown) [perfluoro-2-propyloxolane] | 206 | 79 |
